In patent publication US8158828B2, “Nuclear receptor binding agents” (priority 2005, dated 2012):
“Also recorded” adds a separate entry of the source. Values belong to the molecule of their own block, whether it stands above or below them.

Tests used:
ER-α = target: T1, ER-α (Rattus norvegicus, UniProt P06211); assay: ER-α transactivation, ERE-LUC in COS or 293 cells; format: cell-based; design: % estardiol activity, ER-α: dose or concentration left out as unconfirmed
T1 sequence (P06211 1-600): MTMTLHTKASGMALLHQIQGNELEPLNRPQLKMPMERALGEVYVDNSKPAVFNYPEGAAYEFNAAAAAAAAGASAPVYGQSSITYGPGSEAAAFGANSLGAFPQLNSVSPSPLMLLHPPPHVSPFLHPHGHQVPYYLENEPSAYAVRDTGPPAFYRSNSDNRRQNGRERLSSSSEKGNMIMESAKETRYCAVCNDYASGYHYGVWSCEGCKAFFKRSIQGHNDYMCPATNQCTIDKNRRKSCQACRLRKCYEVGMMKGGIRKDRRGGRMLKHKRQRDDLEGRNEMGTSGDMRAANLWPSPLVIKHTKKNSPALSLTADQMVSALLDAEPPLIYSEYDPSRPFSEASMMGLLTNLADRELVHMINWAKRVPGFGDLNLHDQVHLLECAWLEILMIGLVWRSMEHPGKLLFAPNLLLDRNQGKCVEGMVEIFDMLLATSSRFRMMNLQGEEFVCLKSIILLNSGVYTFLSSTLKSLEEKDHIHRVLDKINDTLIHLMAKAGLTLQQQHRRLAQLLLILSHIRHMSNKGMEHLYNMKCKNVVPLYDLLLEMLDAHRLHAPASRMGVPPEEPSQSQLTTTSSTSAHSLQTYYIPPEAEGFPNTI
Experimental: FIG. 1: Effects of the indicated compounds on ER-α transactivation. COS or 293 cells plated in DME without phenol red+10% charcoal stripped fetal bovine serum (csFBS) at 90,000 cells per well of 24 well plates were transfected with 0.25 μg ERE-LUC, 0.02 μg CMV-LUC (Renilla) and 25 ng of ER-α by lipofectamine. Twenty four hours after transfection, the cells were treated as indicated in the figure, harvested 48 hrs after transfection and were assayed for firefly and renilla luciferase.
(§1) FIG. 5: Effect of the indicated compounds on ER-α transactivation. COS or 293 cells plated in DME without phenol red+10% csFBS at 90,000 cells per well of a 24 well plate were transfected with 0.25 μg ERE-LUC, 0.02 μg CMV-LUC (Renilla) and 5 ng of ER-α by lipofectamine. Twenty four hours after transfection, the cells were treated as indicated in the figure, harvested 48 hrs after transfection and were assayed for firefly and renilla luciferase.
as §1, with “FIG. 9:” for “FIG. 5:”, “csFBS” for “csFBS at 90,000 cells”, “and 25” for “and 5”
Also 25 ng of ER-α (FIGS. 1, 5, and 9), 50 ng of ER-β (FIGS. 2, 6 and 10) or 12.5 ng of AR (FIG. 3) were introduced by lipofectamine. All the receptors were cloned from rat tissue into the PCR3.1 vector backbone. […] Cells were harvested 48 hrs after transfection, and assayed for firefly and Renilla luciferase activity.
Also 25 ng of ER-α), 50 ng of ER-β or 12.5 ng of AR were introduced by lipofectamine. All the receptors were cloned from rat tissue into the PCR3.1 vector backbone. […] Cells were harvested 48 hrs after transfection, and assayed for firefly and Renilla luciferase activity.

uterus = assay: In vivo estrogenic activity, uterine weight; design: species or system rat; conditions: female rats; for estrogenic activity in terms of uterine weight: compound alone
Experimental: Rats that were administered the vehicle alone served as controls.

ER-β = target: T2, ER-β (Rattus norvegicus, UniProt Q62986); assay: ER-β transactivation, ERE-LUC in COS or 293 cells; format: cell-based; conditions: COS or 293 cells
T2 construct: expressed in transfected cells; host or cells: COS or 293 cells
T2 sequence (Q62986 whole entry): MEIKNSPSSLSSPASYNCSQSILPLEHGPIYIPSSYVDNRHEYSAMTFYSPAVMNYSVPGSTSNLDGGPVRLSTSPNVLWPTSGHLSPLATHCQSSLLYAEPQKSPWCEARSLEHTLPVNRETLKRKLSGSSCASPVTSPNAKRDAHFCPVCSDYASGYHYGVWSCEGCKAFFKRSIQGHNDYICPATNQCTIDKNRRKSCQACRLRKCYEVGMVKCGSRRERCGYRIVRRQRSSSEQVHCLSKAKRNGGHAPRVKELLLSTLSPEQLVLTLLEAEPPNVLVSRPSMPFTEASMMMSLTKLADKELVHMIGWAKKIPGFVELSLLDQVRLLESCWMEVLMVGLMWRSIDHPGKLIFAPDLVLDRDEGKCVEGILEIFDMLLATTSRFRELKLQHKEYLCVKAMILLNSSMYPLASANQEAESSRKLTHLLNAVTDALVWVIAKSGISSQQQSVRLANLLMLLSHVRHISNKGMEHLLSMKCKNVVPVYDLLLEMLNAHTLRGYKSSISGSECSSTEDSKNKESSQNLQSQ
Experimental: as §1, with “FIG. 2:” for “FIG. 5:”, “on ER-β” for “on ER-α”, “and 50” for “and 5”, “of ER-β” for “of ER-α”
as §1, with “FIG. 6:” for “FIG. 5:”, “on ER-β” for “on ER-α”, “and 50” for “and 5”, “of ER-β” for “of ER-α”, “and” for “and were”
as §1, with “FIG. 10:” for “FIG. 5:”, “on ER-β” for “on ER-α”, “in DME+10%” for “in DME without phenol red+10%”, “and 50” for “and 5”, “of ER-β” for “of ER-α”
(§2) All the receptors were cloned from rat tissue into the PCR3.1 vector backbone. […] Cells were harvested 48 hrs after transfection, and assayed for firefly and Renilla luciferase activity.
as §2

[1] = test system: TRAP positive multinucleated osteoclasts; assay: TRAP positive multinucleated osteoclasts from bone marrow cells; format: cell-based, rat; conditions: RANKL and GMCSF, 12 days
Experimental: FIG. 7: Effect of the indicated compounds on TRAP positive multinucleated osteoclasts. Bone marrow cells from rat femur was cultured in Alpha MEM+10% csFBS without phenol red in the presence or absence of 30 ng/ml RANKL and 10 ng/ml GMCSF. The cells were treated for 12 days and were stained for tartarate resistant acid phosphatase activity (TRAP) and multinucleated osteoclasts were counted.
Bone marrow cells isolated from rat femur were cultured in Alpha MEM without phenol red+10% sterile FBS without phenol red in the presence or absence of […] RANKL and 10 ng/ml GMCSF. The cells were treated for 12 days were stained for tartarate resistant acid phosphatase activity (TRAP) positive multinucleated osteoclasts and were counted.

[2] = Metabolic stability in human liver microsomes; conditions: 1 μM substrate, 0.5 mg/mL microsomes
Experimental: Each substrate or reference control was dissolved at a concentration of 10 mM in DMSO, from which a 5 μM spiking solution was prepared by dilution in water. Substrates (1 μM) were incubated in the presence of human liver microsomes (Xenotech LLC, Kansas City Mo.) at 0.5 mg/mL fortified with an NADPH regenerating system at 37° C. and pH 7.4. The NADPH regenerating system consisted of glucose-6-phosphate dehydrogenase (1 units/mL) in 0.05M K2HPO4. Duplicate incubations were performed in 96-well polypropylene cluster tubes in a final volume of 250 μL per reaction. At 0, 2, 4, 6, 10, 30, and 60 minutes a stop solution (300 μL acetonitrile) was added to aliquots of the reaction mixture. Precipitated protein was removed by centrifugation (3000 rpm for 15 minutes) and the supernatants were transferred to clean 96-well plates for analysis.
The samples were injected onto a Phenomenex Luna hexylphenyl 50×2 mm i.d. 5 uM, column fitted with a guard column. An isocratic mobile phase consisting of 50% acetonitrile and 0.1% formic acid in water was used at a flow rate of 0.3 mL/min. The protonated molecular ion (M+H)^+ of the analyte was monitored by MDS/Sciex API 4000QTrap triple quadrupole mass spectrometer using electrospray positive mode ionization with a temperature of 500° C. and a spray voltage of 4000V. Total analysis time was 1.5 min per sample.
Metabolic stability was defined as the amount of substrate metabolized by the incubation with hepatic microsomes and expressed as a percentage of the initial amount of substrate (% remaining) based on peak area. Initial substrate concentration for each analyte was 1 μM. The initial peak area of each substrate was determined at time zero and metabolic stability was assessed based on the change in analyte peak area from time 0 min to a single fixed timepoint for each sample (2-60 min, representative timepoints are shown in Table 2 below).

[3] = test system: pS2 (gene encoding the trefoil peptides) in MCF-7 cells; assay: pS2 gene expression in MCF-7 cells (realtime RT-PCR); format: cell-based; conditions: 16 hrs
Experimental: MCF-7 cells were plated at 500,000 cells per well of a 6 well plate. RNA was isolated and the message levels of pS2 (gene encoding the trefoil peptides) measured and normalized to 18S ribosomal RNA by realtime polymerase chain reaction (rtPCR).
FIG. 11: Agonistic activity of the indicated compounds in MCF-7 cells. MCF-7 cells were plated at 500,000 cells per well of a 6 well plate. RNA was isolated and the message levels of pS2 gene measured and normalized to 18S ribosomal RNA by realtime rtPCR.
MCF-7 cells were plated at 500,000 cells per well of a 6 well plate. The cells were serum starved for 3 days and then were treated as above for 16 hrs. RNA was isolated and gene expression levels assessed by realtime RT-PCR, following normalization to 18S ribosomal RNA.

PC-3 cells = assay: Androgen independent prostate cancer cell growth; format: cell-based; conditions: for PC-3 growth inhibition, qualitative grading: in vitro, data not shown; for inhibition at 10 µM: Homo sapiens, PC-3, 72 hrs
Experimental: PC-3 cells were plated in RPMI+10% csFBS at 6000 cells per well of a 96 well plate. Medium was changed to RPMI+1% csFBS without phenol red and then treated for 72 hrs with increasing concentrations of SERMs.
The prostate cancer cell line PC-3 was plated in RPMI+10% csFBS at 6000 cells per well of a 96 well plate. Medium was changed to RPMI+1% csFBS without phenol red and cells were treated for 72 hrs with increasing concentrations of SERMs.
PC-3 growth inhibition was determined qualitatively, in vitro, and represented as a grading system based on the ability of the SERMs to inhibit growth. The number −4 is for compounds that induced 100% growth inhibition at 1 uM, −3 for compounds that inhibit growth by about 75-90%, −2 for about 50-70% and −1 for inhibition less than 50% growth.

SMILES: O=C(c1ccc(O)cc1)N(c1ccc(O)cc1)c1ccc(O)cc1 [Compound 3a, 4-hydroxy-N,N-bis-(4-hydroxyphenyl)-benzamide]
% estardiol activity, ER-α (ER-α): 49.5% | estrogenic activity in terms of uterine weight (uterus): exhibited estrogenic activity, in vivo | ER-β LUC expression, compound alone (ER-β): most potent in stimulating ER-β | osteoclast differentiation / osteoclast activity [1]: suppressed osteoclasts | % Remaining 0 min ([2]; 0 min): 100% | % Remaining 10 min ([2]; 10 min): 140% | % Remaining 30 min ([2]; 30 min): 118% | % Remaining 60 min ([2]; 60 min): 103%

SMILES: O=C(c1cccc(O)c1)N(c1ccccc1)c1ccccc1 [Compound 3f, 3-hydroxy-N,N-diphenyl-benzamide]
pS2 expression [3]: increased pS2 expression levels | estrogenic activity in terms of uterine weight (uterus): exhibited estrogenic activity, in vivo

SMILES: O=S(=O)(c1ccc(O)cc1)N(c1ccccc1)c1ccccc1 [Compound 3l, 4-hydroxy-N,N-diphenyl-phenyl-sulfonamide]
pS2 expression [3]: increased pS2 expression levels | estrogenic activity in terms of uterine weight (uterus): exhibited no estrogenic, or anti-estrogenic activity in uterus | PC-3 growth inhibition, qualitative grading (PC-3 cells): −2 (−2 for about 50-70%)

SMILES: O=C(c1ccccc1)N(c1ccccc1)c1ccc(OCCN2CCCCC2)cc1 [Compound 4b, N-(phenyl)-N-[4-(2-piperidin-1-ylethoxy)-phenyl]-benzamide]
PC-3 growth inhibition, qualitative grading (PC-3 cells): −1 (−1 for inhibition less than 50% growth)

SMILES: Cl.O=C(c1ccc(OCCN2CCCCC2)cc1)N(c1ccccc1)c1ccc(O)cc1 [Compound 4e, N-(4-hydroxyphenyl)-N-phenyl-[4-(2-piperidin-1-ylethoxy)]-benzamide hydrochloride]
estrogenic activity in terms of uterine weight (uterus): exhibited no estrogenic, or anti-estrogenic activity in uterus | PC-3 growth inhibition, qualitative grading (PC-3 cells): −1 (−1 for inhibition less than 50% growth)

SMILES: O=C(c1ccc(OCCN2CCCCC2)cc1)N(c1ccc(O)cc1)c1ccc(F)cc1 [Compound 4g, N-(4-fluorophenyl)-N-[4-hydroxyphenyl]-[4-(2-piperidin-1-ylethoxy)]-benzamide]
estrogenic activity in terms of uterine weight (uterus): exhibited estrogenic activity, in terms of increased uterine weight; also recorded: exhibited estrogenic activity, in vivo | uterine weight increase, with ICI-182,780 (uterus; with ICI-182,780): ICI-182,780 reversed 4a and 4g effects on uterine weight increase | uterine weight, coadministered with estrogen (uterus; with estrogen): an increase in uterine weight was observed

SMILES: Cl.Cl.O=C(c1ccc(OCCN2CCCCC2)cc1)N(c1ccc(F)cc1)c1ccc(OCCN2CCCCC2)cc1 [Compound 4r, N-(4-fluorophenyl)-N-[4-(2-piperidin-1-ylethoxy)-phenyl]-[4-(2-piperidin-1-yl-ethoxy)]-benzamide dihydrochloride]
inhibition at 10 µM (PC-3 cells): 100% | PC-3 growth inhibition, qualitative grading (PC-3 cells): −4 (The number −4 is for compounds that induced 100% growth inhibition at 1 uM)

% estardiol activity, ER-α (ER-α): 12.8%
SMILES: Cl.Cl.O=C(c1ccc(OCCN2CCCCC2)cc1)N(c1ccccc1)c1ccc(OCCN2CCCCC2)cc1 [Compound 4u, N-[4-(2-piperidin-1-ylethoxy)-phenyl]-N-phenyl-[4-(2-piperidin-1-ylethoxy)]-benzamide dihydrochloride]
inhibition at 10 µM (PC-3 cells): 100% | PC-3 growth inhibition, qualitative grading (PC-3 cells): −3 (−3 for compounds that inhibit growth by about 75-90%)
